Legend:
Assay in all cases: CTG-3D luminescence at 96 h relative to day-0 seeding control (ratio to day 0); higher = more growth / less cytotoxicity; PDxO 3D drug screen, 96 h, CTG-3D normalised to day-0 seeding control.
[1] = test system: HCI-027 (organoid from a triple-negative breast cancer xenograft)
[2] = test system: HCI-012 (organoid from a breast cancer xenograft)
[3] = test system: MDA-MB-231
[4] = test system: HCI-001 (organoid from a triple-negative breast cancer xenograft)
[5] = test system: HCI-010 (organoid from a breast cancer xenograft)
[6] = test system: HCI-011.E2 (organoid from an ER-positive breast cancer xenograft)

Cc1cc(Nc2ncnc3ccc(NC4=NC(C)(C)CO4)cc23)ccc1Oc1ccn2ncnc2c1 [tucatinib]
CTG-3D luminescence at 96 h
Details	12.5 pM	0.00025 µM	0.005 µM	0.1 µM	1 µM	10 µM	100 µM	625 fM
[1], days in culture: 176	2.4	1.31	2.9	2.1	1.61	0.414	0.0112	1.82
[1], days in culture: 194	1.81	1.55	1.49	1.66	2.06	1.41	0.0114	1.7
[1], days in culture: 201	2.47	2.58	2.3	2.28	2.1	0.716	0.01	2.42
[2], days in culture: 143	2.24	2.35	2.17	2.39	2.43	1.99	0.0289	2.05
[2], days in culture: 162	2.64	2.24	1.87	3.58	2.71	2.41	0.0168	2.94
[2], days in culture: 201	2.71	2.13	1.62	1.73	2.34	1.37	0.053	1.83
[4], days in culture: 240	1.47	0.88	0.65	1.24	1.37	1.02	0.0264	1.43
[4], days in culture: 260	2.62	0.988	1.22	1.38	0.756	1.46	0.206	1.5
[4], days in culture: 269	1.48	1.49	1.39	1.64	1.38	1.67	0.0618	1.69
[4], days in culture: 327	1.8	1.6	1.87	1.75	1.44	1.16	0.0356	1.78
[4], days in culture: 346	1.47	1.22	1.17	1	1.24	1.25	0.0455	1.21
[4], days in culture: 364	1.49	1.19	1.34	0.88	0.895	1.28	0.0245	1.63
[5], days in culture: 52	2.07	2.16	2.18	2.37	2.53	2.2	0.0134	2.34
[5], days in culture: 65	1.6	1.68	1.97	1.81	1.83	1.4	0.008	1.64
[5], days in culture: 103	3.37	3.95	3.45	3.39	3.5	2.84	0.014	3.37
[6], days in culture: 74	2.22	2.98	1.74	2.19	2.18	3	0.399	2.84

CTG-3D luminescence at 96 h
Details	12.5 pM	0.00025 µM	0.005 µM	0.1 µM	1 µM	10 µM	100 µM	625 fM
[3]	4.57	4.49	4.6	4.56	4.67	4.64	0.058	4.58
[6]	1.7	1.59	1.4	1.87	1.52	1.91	0.142	1.5

CS(=O)(=O)c1ccc(C(=O)Nc2ccc(Cl)c(-c3ccccn3)c2)c(Cl)c1 [vismodegib]
CTG-3D luminescence at 96 h
Details	12.5 pM	0.00025 µM	0.005 µM	0.1 µM	1 µM	10 µM	100 µM	625 fM
[1], days in culture: 176	2.64	1.85	2.83	2.12	2.22	1.1	-0.204	2.79
[1], days in culture: 194	2.59	1.87	2.35	2.35	2.6	2.12	-0.0508	2.34
[1], days in culture: 201	3.03	3.03	3.44	2.6	3.36	1.74	0.019	3.54
[2], days in culture: 143	2.03	2.38	2.4	2.49	2.42	2.55	0.427	1.88
[2], days in culture: 162	2.64	2.72	2.08	2.88	2.4	2.69	0.492	3
[2], days in culture: 201	2.82	2.26	1.72	1.56	2.33	1.8	0.943	1.59
[4], days in culture: 240	1.85	1.26	0.998	1.03	1.5	1.19	0.836	2.27
[4], days in culture: 260	2.49	1.08	2.27	1.74	1.57	1.91	0.909	1.99
[4], days in culture: 269	1.57	1.89	1.55	1.36	1.13	1.83	0.861	1.51
[4], days in culture: 327	2.09	1.61	2.29	1.87	1.93	1.2	1.19	1.94
[4], days in culture: 346	1.82	1.38	1.23	1.34	1.47	1.65	1.35	1.34
[4], days in culture: 364	1.66	1.26	1.67	1.34	1.47	1.71	1.1	1.64
[5], days in culture: 52	1.83	1.98	2.08	2.26	2.4	2.15	0.825	1.78
[5], days in culture: 65	1.54	1.74	1.56	1.6	1.71	1.5	0.574	1.59
[5], days in culture: 103	2.84	3.06	3	3.14	2.91	2.62	1.52	2.8
[6], days in culture: 74	2.31	1.93	1.98	2.31	2.12	3.48	1.49	2.36

CTG-3D luminescence at 96 h
Details	12.5 pM	0.00025 µM	0.005 µM	0.1 µM	1 µM	10 µM	100 µM	625 fM
[3]	4.58	4.44	4.54	4.53	4.66	4.73	4	4.62
[6]	1.44	1.41	1.58	1.72	1.61	1.85	1.13	1.67

CNC(=O)c1cccc(-c2ccc3c(N4CCOC[C@@H]4C)nc(N4CCOC[C@@H]4C)nc3n2)c1 [vistusertib]
CTG-3D luminescence at 96 h
Details	12.5 pM	0.00025 µM	0.005 µM	0.1 µM	1 µM	10 µM	100 µM	625 fM
[1], days in culture: 176	2.07	1.54	3.05	1.73	0.81	0.32	0.123	2.96
[1], days in culture: 194	1.93	1.49	1.77	1.58	1.03	0.803	0.226	1.84
[1], days in culture: 201	1.74	2.52	2.47	2.11	1.06	0.501	0.169	2.26
[2], days in culture: 143	2.08	2.14	2.4	1.9	1.14	0.875	0.292	1.87
[2], days in culture: 162	2.68	2.6	1.94	2.8	1.21	1.06	0.318	3.34
[2], days in culture: 201	2.73	1.99	1.53	1.7	1.42	0.57	0.745	1.48
[4], days in culture: 240	1.6	1.12	0.733	0.68	0.589	0.404	0.27	1.82
[4], days in culture: 260	2.82	1.1	1.62	1.31	0.501	0.89	0.406	1.23
[4], days in culture: 269	1.63	1.62	1.55	1.03	0.524	0.533	0.378	1.6
[4], days in culture: 327	1.63	1.59	1.68	1.5	1.09	0.485	0.721	1.93
[4], days in culture: 346	1.29	1.31	1.14	0.926	0.641	0.549	0.566	1.28
[4], days in culture: 364	1.51	1.3	1.38	0.795	0.495	0.606	0.601	1.78
[5], days in culture: 52	2.1	2.32	2.14	1.57	0.904	0.76	0.17	2.19
[5], days in culture: 65	1.67	1.73	1.69	1.14	0.708	0.543	0.0432	1.68
[5], days in culture: 103	3.33	3.37	3.25	1.95	1.51	1.24	0.419	3.04
[6], days in culture: 74	3.1	2.54	2.03	1	0.26	0.247	0.0598	2.38

CTG-3D luminescence at 96 h
Details	12.5 pM	0.00025 µM	0.005 µM	0.1 µM	1 µM	10 µM	100 µM	625 fM
[3]	4.58	4.53	4.66	4.35	3.31	2.7	1.9	4.64
[6]	1.477	1.841	1.52	1.23	0.256	0.212	0.057	1.59

Reference: the supplement of paper PMC8882468
